Laboratory results taken from the CheMixHub ionic liquid set.

Experiment: xn = mol fraction of the nth substance listed

CC(=O)[O-].CC[n+]1ccn(C)c1 + Cn1ccnc1 + CCOC(C)=O
298.15 K, 101 kPa, x1 = 1, x2 = 0
Conditions	electrical conductivity [S/m]	viscosity [mPa·s]
–	0.297	133.9

CC[n+]1ccn(C)c1.CS(=O)(=O)[O-] + O
100 kPa, frequency 0.003 MHz
Conditions	electrical conductivity [S/m]
293.15 K, x1 = 0.0165	3.25
303.15 K, x1 = 0.1122	4.74
313.15 K, x1 = 0.3752	2.25
323.15 K, x1 = 0.0489	8.42
323.15 K, x1 = 0.2034	5.15
323.15 K, x1 = 0.3752	2.92
323.15 K, x1 = 0.9339	0.827
343.15 K, x1 = 0.0165	7.59
343.15 K, x1 = 0.0489	11.4
353.15 K, x1 = 0.0165	8.61
353.15 K, x1 = 0.0489	13
353.15 K, x1 = 0.3752	5.32
353.15 K, x1 = 0.9339	2.01

Conditions	viscosity [mPa·s]
293.15 K, 100 kPa, x1 = 0.0674	3.026
298.15 K, 102.2 kPa, x1 = 0.75	42.2
303.15 K, 100 kPa, x1 = 0.0177	1.135
303.15 K, 100 kPa, x1 = 0.9357	115
303.15 K, 102.2 kPa, x1 = 0.75	34.3
313.15 K, 100 kPa, x1 = 0.0357	1.237
313.15 K, 100 kPa, x1 = 0.1089	3.068
313.15 K, 102.2 kPa, x1 = 0.75	24
323.15 K, 100 kPa, x1 = 0.0177	0.756
323.15 K, 100 kPa, x1 = 0.0357	1.012
323.15 K, 100 kPa, x1 = 0.4263	12.22
328.15 K, 102.2 kPa, x1 = 0.75	15.7
353.15 K, 100 kPa, x1 = 0.0674	0.879
353.15 K, 100 kPa, x1 = 0.1848	2.346

C[n+]1ccn(CCCCCn2cc[n+](C)c2)c1.O=S(=O)([N-]S(=O)(=O)C(F)(F)F)C(F)(F)F.O=S(=O)([N-]S(=O)(=O)C(F)(F)F)C(F)(F)F + CN1CCCC1=O
viscosity [mPa·s], 101 kPa
Conditions	293.15 K	303.15 K	313.15 K	323.15 K	333.15 K
x1 = 0.3841	153.6	96	60.8	41.6	25.6
x1 = 0.5551	349	188.8	118.4	76.8	51.2
x1 = 1	1123	557	310	188.8	121.6

CCCCCCCCCCCC[n+]1ccn(C)c1.[Br-] + O
298.15 K, 100 kPa, frequency 0.001 MHz
Conditions	electrical conductivity [S/m]
x1 = 3.604e-05	0.018
x1 = 7.207e-05	0.036
x1 = 9.009e-05	0.045
x1 = 0.0001081	0.054
x1 = 0.0001261	0.065
x1 = 0.0001441	0.072
x1 = 0.0001622	0.081
x1 = 0.0001802	0.089
x1 = 0.0002522	0.101
x1 = 0.0003242	0.111

CCCO + CC[n+]1ccn(CCOC)c1.O=S(=O)([O-])C(F)(F)F
101 kPa, x2 = 0
Conditions	viscosity [mPa·s]
288.15 K	2.475
293.15 K	2.185
298.15 K	1.937
303.15 K	1.723
308.15 K	1.537
313.15 K	1.377
318.15 K	1.235
